Activity calls are given as the source filed them.
How the values were obtained:
Perilipin-1/ABHD5 = Perilipin-1/ABHD5 (Homo sapiens, UniProt O60240+Q8WTS1); experiment: Luminescence-based biochemical high throughput dose response assay for inhibitors of the interaction of the lipase co-activator protein, abhydrolase domain containing 5 (ABHD5) with perilipin-1 (PLIN1) (2K validation set). [Related pubchem assays (depositor defined):AID493027, AID493057]
Troponin, cardiac muscle = Troponin, cardiac muscle (Homo sapiens, UniProt P19429+P45379+P63316); experiment: Fluorescence-based biochemical high throughput dose response assay for activators of the calcium sensitivity of cardiac Regulated Thin Filaments (RTF). [Related pubchem assays (depositor defined):AID493008, AID493018, AID504382, AID504383]; assay type: protein-complex assay
[1] = molecular target: 1-acylglycerol-3-phosphate O-acyltransferase ABHD5/Perilipin-5 (Homo sapiens, UniProt Q00G26+Q8WTS1); experiment: Luminescence-based biochemical high throughput dose response assay for inhibitors of the interaction of the lipase co-activator protein, abhydrolase domain containing 5 (ABHD5) with perilipin-5 (MLDP; PLIN5) (2K validation set). [Related pubchem assays (depositor defined):AID493035, AID493241]
Sequence of 1-acylglycerol-3-phosphate O-acyltransferase ABHD5/Perilipin-5 (Q00G26 whole entry, the tested form may be a part): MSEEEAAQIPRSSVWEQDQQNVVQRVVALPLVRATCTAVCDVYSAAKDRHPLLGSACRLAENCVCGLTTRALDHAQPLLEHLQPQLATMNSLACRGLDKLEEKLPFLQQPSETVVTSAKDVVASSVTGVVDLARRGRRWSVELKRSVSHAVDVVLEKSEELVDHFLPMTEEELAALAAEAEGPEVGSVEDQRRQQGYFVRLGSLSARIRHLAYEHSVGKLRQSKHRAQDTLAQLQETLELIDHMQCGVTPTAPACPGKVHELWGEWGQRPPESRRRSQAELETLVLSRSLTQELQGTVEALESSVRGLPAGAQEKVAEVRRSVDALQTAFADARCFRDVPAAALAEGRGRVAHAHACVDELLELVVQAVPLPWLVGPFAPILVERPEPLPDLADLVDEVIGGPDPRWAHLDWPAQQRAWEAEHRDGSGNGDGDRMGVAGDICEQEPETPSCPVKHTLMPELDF
Sequence of 1-acylglycerol-3-phosphate O-acyltransferase ABHD5/Perilipin-5 (Q8WTS1 whole entry, the tested form may be a part): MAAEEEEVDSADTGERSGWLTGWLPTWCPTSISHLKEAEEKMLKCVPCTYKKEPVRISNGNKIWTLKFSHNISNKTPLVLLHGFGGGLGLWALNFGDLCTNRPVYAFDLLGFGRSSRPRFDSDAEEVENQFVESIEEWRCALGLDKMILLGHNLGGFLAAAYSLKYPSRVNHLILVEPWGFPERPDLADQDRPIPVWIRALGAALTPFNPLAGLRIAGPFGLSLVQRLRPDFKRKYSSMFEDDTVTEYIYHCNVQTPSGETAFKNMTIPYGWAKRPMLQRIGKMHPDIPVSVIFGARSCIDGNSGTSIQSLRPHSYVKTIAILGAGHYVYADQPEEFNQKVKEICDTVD

Leucine aminopeptidase = molecular target: T1, Leucine aminopeptidase (Plasmodium falciparum 3D7, UniProt Q8IL11); experiment: P. falciparum M17LAP inhibitors, primary screen, biochemical, fluorogenic H-Leu-NHMec substrate, 1536-well (AID 1619); assay type: functional
T1 sequence (Q8IL11 whole entry): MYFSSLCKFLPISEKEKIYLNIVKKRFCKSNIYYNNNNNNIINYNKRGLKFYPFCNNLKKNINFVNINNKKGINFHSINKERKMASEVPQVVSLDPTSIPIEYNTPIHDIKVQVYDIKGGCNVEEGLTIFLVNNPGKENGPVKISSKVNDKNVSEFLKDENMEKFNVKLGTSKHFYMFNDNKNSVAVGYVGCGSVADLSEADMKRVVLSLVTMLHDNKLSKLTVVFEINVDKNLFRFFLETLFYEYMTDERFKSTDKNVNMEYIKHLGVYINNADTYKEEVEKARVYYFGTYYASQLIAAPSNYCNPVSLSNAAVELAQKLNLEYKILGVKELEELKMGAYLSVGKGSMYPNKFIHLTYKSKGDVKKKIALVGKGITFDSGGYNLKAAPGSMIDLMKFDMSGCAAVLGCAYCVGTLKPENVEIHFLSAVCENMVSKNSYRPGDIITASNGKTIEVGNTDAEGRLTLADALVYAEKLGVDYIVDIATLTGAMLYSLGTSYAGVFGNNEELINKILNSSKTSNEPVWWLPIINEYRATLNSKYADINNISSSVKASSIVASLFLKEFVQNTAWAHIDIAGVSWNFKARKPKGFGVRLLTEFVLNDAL

[2] = molecular target: Alkaline phosphatase, placental type (Homo sapiens, UniProt P05187); experiment: human placental alkaline phosphatase inhibition – biochemical, luminescence, confirmation (AID 1512); assay type: functional
Sequence of Alkaline phosphatase, placental type (P05187 whole entry): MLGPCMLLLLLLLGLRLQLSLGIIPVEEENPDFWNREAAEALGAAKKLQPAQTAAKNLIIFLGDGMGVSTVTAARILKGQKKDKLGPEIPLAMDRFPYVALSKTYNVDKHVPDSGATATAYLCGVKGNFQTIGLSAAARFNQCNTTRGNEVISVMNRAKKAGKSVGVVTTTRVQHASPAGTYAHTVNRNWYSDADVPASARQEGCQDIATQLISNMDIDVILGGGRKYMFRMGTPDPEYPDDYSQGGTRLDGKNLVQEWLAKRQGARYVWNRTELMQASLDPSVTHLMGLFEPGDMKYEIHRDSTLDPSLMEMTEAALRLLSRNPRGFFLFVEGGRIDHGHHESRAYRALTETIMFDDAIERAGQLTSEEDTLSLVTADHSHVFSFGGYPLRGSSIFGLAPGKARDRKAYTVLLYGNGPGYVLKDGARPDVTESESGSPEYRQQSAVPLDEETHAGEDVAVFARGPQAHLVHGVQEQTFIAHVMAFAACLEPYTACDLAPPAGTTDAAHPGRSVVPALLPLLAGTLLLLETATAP

[3] = molecular target: T2, Alkaline phosphatase, tissue-nonspecific isozyme (Homo sapiens, UniProt P05186); experiment: potency against alkaline phosphatase TNAP – biochemical, luminescent, dose response, SAR follow-up (AID 1056)
T2 sequence (P05186 whole entry): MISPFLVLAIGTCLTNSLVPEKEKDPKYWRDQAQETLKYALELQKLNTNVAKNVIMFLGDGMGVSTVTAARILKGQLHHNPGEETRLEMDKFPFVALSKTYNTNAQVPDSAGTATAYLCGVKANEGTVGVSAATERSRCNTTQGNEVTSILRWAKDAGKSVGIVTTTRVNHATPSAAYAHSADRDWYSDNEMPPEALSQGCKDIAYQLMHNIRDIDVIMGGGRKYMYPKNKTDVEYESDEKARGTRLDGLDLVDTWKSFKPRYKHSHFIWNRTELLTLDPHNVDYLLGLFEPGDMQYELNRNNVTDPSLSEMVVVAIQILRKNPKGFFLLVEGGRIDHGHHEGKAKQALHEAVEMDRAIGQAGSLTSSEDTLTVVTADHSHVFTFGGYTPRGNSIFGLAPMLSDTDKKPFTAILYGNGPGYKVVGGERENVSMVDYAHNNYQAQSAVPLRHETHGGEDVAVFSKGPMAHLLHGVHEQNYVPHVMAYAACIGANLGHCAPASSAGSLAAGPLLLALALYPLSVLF

[4] = molecular target: T3, Kappa-type opioid receptor (Homo sapiens, UniProt P41145); experiment: SAR analysis of Antagonists of the Kappa Opioid Receptor (KOR) using an Image-Based Assay - Set 3. [Related pubchem assays (depositor defined):AID1777, AID1785]; assay type: functional
T3 sequence (P41145 whole entry): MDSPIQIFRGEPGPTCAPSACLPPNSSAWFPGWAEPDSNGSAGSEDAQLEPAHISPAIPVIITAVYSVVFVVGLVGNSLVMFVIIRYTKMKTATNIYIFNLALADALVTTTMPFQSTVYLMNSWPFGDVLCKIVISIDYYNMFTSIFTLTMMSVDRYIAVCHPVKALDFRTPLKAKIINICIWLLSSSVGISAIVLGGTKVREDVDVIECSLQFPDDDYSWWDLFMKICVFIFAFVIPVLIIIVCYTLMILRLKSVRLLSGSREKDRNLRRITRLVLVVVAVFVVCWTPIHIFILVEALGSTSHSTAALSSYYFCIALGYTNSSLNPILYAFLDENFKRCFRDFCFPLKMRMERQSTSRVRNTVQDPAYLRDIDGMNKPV

[5] = molecular target: T3, Kappa-type opioid receptor; experiment: SAR analysis of small molecule antagonists of the kappa opioid receptor via a luminescent beta-arrestin assay - Set 3. [Related pubchem assays (depositor defined):AID1777, AID1778, AID1785, AID1786, AID1966, AID2133, AID2136, AID2285, AID2495]; assay type: functional
[6] = molecular target: Delta-type opioid receptor (Homo sapiens, UniProt P41143); experiment: SAR Analysis of Antagonists of the DOR Receptor using an Image-Based Assay - Set 3. [Related pubchem assays (depositor defined):AID1777, AID1785]; assay type: functional;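 further: U2OS cells expressing DOR1 and beta-arrestin GFP stimulated with 100 nM SNC80; imaging of GFP-tagged beta-arrestin moving into spots after receptor activation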
Sequence of Delta-type opioid receptor (P41143 whole entry): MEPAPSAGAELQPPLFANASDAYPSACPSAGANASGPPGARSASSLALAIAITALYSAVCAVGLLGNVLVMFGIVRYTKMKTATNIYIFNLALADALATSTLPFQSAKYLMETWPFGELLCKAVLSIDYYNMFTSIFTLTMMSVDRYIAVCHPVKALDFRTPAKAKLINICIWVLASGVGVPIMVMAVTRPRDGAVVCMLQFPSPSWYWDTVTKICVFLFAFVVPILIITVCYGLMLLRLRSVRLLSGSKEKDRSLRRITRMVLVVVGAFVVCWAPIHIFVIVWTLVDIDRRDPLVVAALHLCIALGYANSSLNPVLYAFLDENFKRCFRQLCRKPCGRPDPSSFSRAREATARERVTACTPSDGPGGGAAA

Mu-type opioid receptor = Mu-type opioid receptor (Homo sapiens, UniProt P35372); experiment: SAR Analysis of Antagonists of the MOR Receptor using an Image-Based Assay - Set 3. [Related pubchem assays (depositor defined):AID1777, AID1785, AID1786, AID1966, AID2133, AID2136, AID2284, AID2285, AID2420]; assay type: functional
Sequence of Mu-type opioid receptor (P35372 whole entry): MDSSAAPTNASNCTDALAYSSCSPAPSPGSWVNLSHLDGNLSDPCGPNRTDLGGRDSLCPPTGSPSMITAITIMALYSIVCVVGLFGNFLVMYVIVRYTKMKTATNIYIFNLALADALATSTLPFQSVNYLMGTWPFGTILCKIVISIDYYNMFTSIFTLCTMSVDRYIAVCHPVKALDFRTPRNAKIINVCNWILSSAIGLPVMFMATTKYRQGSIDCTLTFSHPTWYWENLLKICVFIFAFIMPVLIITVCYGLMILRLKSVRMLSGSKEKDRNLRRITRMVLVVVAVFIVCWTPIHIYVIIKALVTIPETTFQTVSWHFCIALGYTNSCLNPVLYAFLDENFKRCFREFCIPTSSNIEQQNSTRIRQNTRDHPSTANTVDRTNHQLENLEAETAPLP

Sequence of Perilipin-1/ABHD5 (Q8WTS1 whole entry, the tested form may be a part): as the sequence (Q8WTS1 whole entry, the tested form may be a part) above
Sequence of Perilipin-1/ABHD5 (O60240 whole entry, the tested form may be a part): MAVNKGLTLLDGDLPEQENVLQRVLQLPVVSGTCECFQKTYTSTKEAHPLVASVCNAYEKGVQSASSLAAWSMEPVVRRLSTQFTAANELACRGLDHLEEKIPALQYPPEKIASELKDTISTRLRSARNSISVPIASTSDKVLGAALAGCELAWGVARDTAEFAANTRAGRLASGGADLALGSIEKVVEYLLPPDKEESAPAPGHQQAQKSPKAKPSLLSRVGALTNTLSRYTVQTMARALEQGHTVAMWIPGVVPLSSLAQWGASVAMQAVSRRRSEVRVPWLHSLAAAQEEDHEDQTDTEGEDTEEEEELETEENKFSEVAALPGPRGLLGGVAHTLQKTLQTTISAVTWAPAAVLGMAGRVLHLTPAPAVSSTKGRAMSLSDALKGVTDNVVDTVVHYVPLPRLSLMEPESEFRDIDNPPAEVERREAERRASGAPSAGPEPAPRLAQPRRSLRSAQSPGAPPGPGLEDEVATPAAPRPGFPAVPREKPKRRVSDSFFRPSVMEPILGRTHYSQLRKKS

With `COc1ccccc1C(=O)Oc1ccc2c(c1)O/C(=C\c1ccncc1)C2=O` the IC50 (Perilipin-1/ABHD5) was 6.72 µM (active), the EC50 (Troponin, cardiac muscle) was 13.7 µM (inactive) and the IC50 [1] was 8.12 µM (active).
With `CCn1c(SCC(=O)c2ccc(O)c(O)c2)nnc1-c1ccccc1` the IC50 (Leucine aminopeptidase) was 13.3 µM (active), the IC50 [2] was 4.32 µM (active) and the IC50 [3] was 35.8 µM (active).
`Cc1ccc(CN(CCNC(=O)c2ccc(CNS(=O)(=O)c3ccc(C)cc3)cc2)C(C)C)cc1` was tested, and the IC50 [4] was 0.246 µM (active), the IC50 [5] was 1.17 µM (active) and the IC50 [6] was > 32 µM (inactive). The IC50 (Mu-type opioid receptor) was > 32 µM (inactive).

From ChEMBL document CHEMBL1201862, “PubChem BioAssay data set” (2004)
